Assay results from ChEMBL document CHEMBL1122965, “The pKa of butaclamol and the mode of butaclamol binding to central dopamine receptors” (J Med Chem, 1985).

Target: Dopamine receptor (Homo sapiens) (UniProt P14416+P35462+P21918+P21917+P21728)
Description: Compound was evaluated for its binding affinity towards Dopamine receptor

c1ccc([C@H]2CN3CCC[C@H]3c3ccccc32)cc1
pKa: 9.12

CC(C)(C)[C@]1(O)CCN2C[C@@H](c3ccccc3)c3ccccc3[C@@H]2C1
pKa: 7.03
